For experiment [1], the target named is T1, 5-HT1A receptors (Rattus norvegicus, UniProt P19327).
T1 sequence (P19327 1-422): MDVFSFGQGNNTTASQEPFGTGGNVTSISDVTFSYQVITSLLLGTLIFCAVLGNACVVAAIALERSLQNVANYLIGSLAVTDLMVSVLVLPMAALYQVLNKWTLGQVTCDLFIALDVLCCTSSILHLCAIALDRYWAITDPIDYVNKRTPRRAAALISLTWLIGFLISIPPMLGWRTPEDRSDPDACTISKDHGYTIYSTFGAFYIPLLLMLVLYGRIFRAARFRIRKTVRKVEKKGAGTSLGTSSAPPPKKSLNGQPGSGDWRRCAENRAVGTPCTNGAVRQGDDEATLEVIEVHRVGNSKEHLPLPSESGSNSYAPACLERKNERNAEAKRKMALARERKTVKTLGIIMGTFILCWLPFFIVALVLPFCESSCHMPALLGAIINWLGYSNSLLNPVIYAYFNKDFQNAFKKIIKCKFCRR
Put plainly: Inhibition of 3H-8-OH-DPAT binding to serotonin 5-HT1A receptors in rat brain in vitro. Details: 5-HT1A receptors in membranes from rat brain minus cerebellum; from tissue; host or cells: brain minus cerebellum of male Wistar (Mol:Wist) rats, crude membranes; species or system rat (male Wistar). The settings on record: 3H 8-OH DPAT binding IC50, 1 nM 3H-8-OH-DPAT, rat brain minus cerebellum membranes, 37° C., 15 min.
Method: Male Wistar (Mol:Wist) rats (125-250 g) are sacrificed and the brain is dissected and weighed. The brain tissue minus cerebellum is homogenized (Ultra Turrax, 20 sec) in 10 ml of ice cold 50 nM Tris buffer pH 8.0 (at 25° C.) containing 120 mM NaCl, 4 mM CaCl2 and 4 mM MgCl2. The homogenate is centrifuged at 20,000 g for 10 min at 4° C. The pellet is homogenized in 10 ml of buffer and incubated at 37° C. for 10 min. The homogenate is centrifuged as above and the pellet is homogenized in 100 vol (w/v) ice cold buffer containing 10 μM of pargyline.
Incubation tubes kept on ice in triplicate receive 100 μl of drug solution in water (or water for total binding) and 1000 μl of tissue suspension (final tissue content corresponds to 10 mg original tissue). […] After incubation for 15 min the samples are filtered under vacuum (0-50 mBar) through Whatman GF/F filters (25 mm). The tubes are rinsed with 5 ml ice cold 0.9% NaCl which is then poured on the filters. Thereafter, the filters are washed with 2×5 ml 0.9% NaCl. The filters are placed in counting vials and 4 ml of appropriate scintillation fluid (e.g. Picofluor™ 15) are added. After shaking for 1 h and storage 2 h in the dark the content of radioactivity is determined by liquid scintillation counting. Specific binding is obtained by subtracting the nonspecific binding in the presence of 10 μM of 5-HT.
For determination of the inhibition of binding five concentrations of drugs covering 3 decades are used.
The IC50 -value is determined as the concentration, at which the binding is 50% of the total binding in control samples minus the nonspecific binding in the presence of 10 μM of 5-HT.

Experiment [2] addresses T1, 5-HT1A receptors. Briefly: 8-OH DPAT cue agonism in rats (drug discrimination). In kind it is in vivo, male Wistar rats. More on the design: agonist effects of a test compound on 5-HT1A receptors in vivo; from tissue; host or cells: living male Wistar rats (endogenous receptor, in vivo). The settings on record: sc, read-out: 8-OH DPAT Cue Agonism ED50, rats, s.c., usually 30 or 45 min before test. Here is the method: 8-OH DPAT Cue Agonisme in Rats
This test model is used to determine the agonist effects of a test compound on 5-HT1A receptors in vivo. A related method is described by Tricklebank, M. D., et al, Eur. J. Pharmacol., 1987, 133, 47-56; Arnt, J. Pharmacology & Toxicology, 1989, 64, 165.
Male Wistar rats are trained to discriminate between 8-OH-DPAT (0.4 mg/kg, i.p., 15 min pretreatment) and physiological saline in operant chambers equipped with two response levers. Between the levers a dipper is placed, where water rewards (0.1 ml) are presented. The rats are water deprived for at least 24 h and work in a fixed ratio (FR) schedule (final FR=32).
Following 8-OH-DPAT administration responding is reinforced only on a designated (drug) lever, whereas responding on the opposite lever has no consequences. Following saline administration responding is reinforced on the lever opposite to the drug lever. Drug and saline trials alternate randomly between days. The level of s discrimination occuracy is expressed as the per cent drug responses and is calculated as the number of correct responses ×100 divided by the sum of the correct and incorrect responses before the first reward. The time to the first reward is also recorded as a measure of reaction time. When stable occuracy (mean correst responding=90%; individual rats at least 75% correct responding) is obtained test sessions are included between training days. Test compound is injected s.c. usually 30 min or 45 min, respectively, before beginning of the test. The test trial is terminated when a total of 32 responses are made on either lever or when 20 min have elapsed. No reward is given and the rats have free access to water for 20-30 min after the test. The effects are expressed as per cent drug responding. Only results from rats making at least 10 responses on one lever are included in data analysis. Furthermore, only test sessions in which at least half of the rats respond are included.
The per cent inhibition of drug response obtained for each dose of test compound is used to calculate ED50 values by log-probit analysis.

For experiment [3] the following is noted: clinical studies; Glitz, Pohl, Drugs 1991; cited from earlier work.

The IC50 is the concentration needed to halve the response being measured. Lower therefore signals higher potency. Usually ED50 stands for the midpoint of the dose-response relation.

In experiment [1], `CC(=O)Nc1ccc2c(c1)C(CN(C)CCN1CCNC1=O)CC2` (stereo not shown) [Compound 13d, 6-Acetylamino-1-[N-[2-(2-imidazolidinon-1-yl)ethyl]-N -methylaminomethyl]indan] registered an IC50 of 1.8 nM. In addition, in experiment [2], the ED50 is 0.61 µmol/kg.
As to `CC1(C)CC(=O)N(CCCCN2CCN(c3ncccn3)CC2)C(=O)C1` [gepirone, 4,4-dimethyl-1-[4-[4-(2-pyrimidyl)-1-piperazinyl]butyl]-2,6-piperidinedione], in experiment [3], the “usefulness in the treatment of anxiety disorders (in words)” value was “useful in the treatment of anxiety disorders”.
For `O=C1c2ccccc2S(=O)(=O)N1CCCCN1CCN(c2ncccn2)CC1` [ipsapirone, 2-[4-[4-(2-pyrimidyl)-1-piperazinyl]butyl]-1,2-benzothiazol-3(2H)-one-1,1-dioxide], in experiment [3], the “usefulness in the treatment of anxiety disorders (in words)” value is “useful in the treatment of anxiety disorders”.

Values taken from patent US5807889A, “Aminomethylindans, -benzofuranes and -benzothiophenes” (H. Lundbeck A/S, priority 1992, dated 1998).
